This test relates to BDF1 mice, L1210 terephthalanilide-resistant leukemia ip, survival T/C. Nature of the test: NCI In Vivo Anticancer Drug Screen. Data for tumor model L1210 Leukemia resistant to A Terephthalanilide; NSC 38280 (intraperitoneal) in B6D2F1 (BDF1) mice. To be noted: endpoint: mean survival time, higher = longer survival. As to the method:
The antitumor activity of compounds was measured in mice bearing transplantable tumors. Survival or tumor size were measured and the results are expressed as the measurement made in the treated group (T) divided by the measurement made in the vehicle treated control group (C). The tumor model used in this assay is L1210 Leukemia resistant to A Terephthalanilide; NSC 38280 (intraperitoneal) in B6D2F1 (BDF1) mice

The mark [1] stands for this setting: dose: 10.0 mg/kg/injection, schedule: Q01DX010 (ip), vehicle: saline.
Where [2] appears, read: dose: 12.5 mg/kg/injection, schedule: Q01DX Z (ip), vehicle: saline.
The mark [3] stands for this setting: dose: 20.0 mg/kg/injection, schedule: Q01DX010 (ip), vehicle: saline.
Where [4] appears, read: dose: 25.0 mg/kg/injection, schedule: Q01DX Z (ip), vehicle: saline.
Setting [5] is: dose: 40.0 mg/kg/injection, schedule: Q01DX010 (ip), vehicle: saline.
The mark [6] stands for this setting: dose: 50.0 mg/kg/injection, schedule: Q01DX Z (ip), vehicle: saline.
The mark [7] stands for this setting: dose: 80.0 mg/kg/injection, schedule: Q01DX010 (ip), vehicle: saline.
Where [8] appears, read: dose: 100.0 mg/kg/injection, schedule: Q01DX Z (ip), vehicle: saline.
[9] abbreviates: dose: 16.0 mg/kg/injection, schedule: Q01DX010 (ip), vehicle: saline.
Setting [10] is: dose: 12.5 mg/kg/injection, schedule: Q01DX010 (ip), vehicle: saline.
The mark [11] stands for this setting: dose: 25.0 mg/kg/injection, schedule: Q01DX010 (ip), vehicle: saline.
Where [12] appears, read: dose: 2.0 mg/kg/injection, schedule: Q01DX010 (ip), vehicle: saline.
Setting [13] is: dose: 50.0 mg/kg/injection, schedule: Q01DX010 (ip), vehicle: saline.
The mark [14] stands for this setting: dose: 100.0 mg/kg/injection, schedule: Q01DX010 (ip), vehicle: saline.

Where “and” joins values, the source holds several entries; their conditions need not be identical. Identical values can stand only once. Toxic doses and inconclusive results are not listed.

Take `O=c1[nH]c(=O)n(C2CC(O)C(CO)O2)cc1F` (stereo not drawn): the T/C by setting is: under setting [1], 103 % of control; under setting [2], 118 % of control; under setting [3], 110 % of control and 119 % of control; under setting [4], 116 % of control; (dose: 37.5 mg/kg/injection, schedule: Q01DX Z (ip), vehicle: saline) 122 % of control; under setting [5], 95 % of control. The T/C reads like this: under setting [6], 178 % of control; under setting [7], 151 % of control; under setting [8], 183 % of control; (dose: 500.0 mg/kg/injection, schedule: Q01DX Z (ip), vehicle: saline) 119 % of control.
Regarding `O=C(Nc1ccc(C2=NCCN2)cc1)c1cccc(C(=O)Nc2ccc(C3=NCCN3)cc2)c1`, the T/C (dose: 8.0 mg/kg/injection, schedule: Q01DX010 (ip), vehicle: saline) was 94 % of control and 101 % of control; the T/C under setting [9] was 105 % of control and 110 % of control; the T/C (dose: 32.0 mg/kg/injection, schedule: Q01DX010 (ip), vehicle: saline) is 106 % of control and 110 % of control; the T/C (dose: 64.0 mg/kg/injection, schedule: Q01DX010 (ip), vehicle: saline) was 120 % of control.
As to `CCCNc1ncnc2[nH]ncc12`, the T/C is, setting by setting: (dose: 3.13 mg/kg/injection, schedule: Q01DX010 (ip), vehicle: saline) 92 % of control and 103 % of control; (dose: 6.25 mg/kg/injection, schedule: Q01DX010 (ip), vehicle: saline) 96 % of control and 108 % of control; under setting [10], 95 % of control and 101 % of control; under setting [2], 115 % of control; under setting [11], 92 % of control and 106 % of control; under setting [6], 93 % of control.
With `Clc1ccc(C(c2ccccc2Cl)C(Cl)Cl)cc1` (stereo not drawn), the T/C (dose: 62.5 mg/kg/injection, schedule: Q01DX Z (sc), vehicle: steriod suspending solution) was 102 % of control; the T/C (dose: 125.0 mg/kg/injection, schedule: Q01DX Z (sc), vehicle: steriod suspending solution) was 104 % of control; the T/C (dose: 250.0 mg/kg/injection, schedule: Q01DX Z (sc), vehicle: steriod suspending solution) is 93 % of control; the T/C (dose: 500.0 mg/kg/injection, schedule: Q01DX Z (sc), vehicle: steriod suspending solution) is 102 % of control; the T/C (dose: 750.0 mg/kg/injection, schedule: Q01DX Z (sc), vehicle: steriod suspending solution) is 100 % of control; the T/C (dose: 1000.0 mg/kg/injection, schedule: Q01DX Z (sc), vehicle: steriod suspending solution) was 95 % of control. For the same molecule, the T/C (dose: 1200.0 mg/kg/injection, schedule: Q01DX Z (sc), vehicle: steriod suspending solution) was 94 % of control and the T/C (dose: 1500.0 mg/kg/injection, schedule: Q01DX Z (sc), vehicle: steriod suspending solution) is 91 % of control.
Take `CS(=O)(=O)OCCN(CCOS(C)(=O)=O)c1ccc(N=O)cc1`: the T/C by setting is: (dose: 0.5 mg/kg/injection, schedule: Q01DX010 (ip), vehicle: saline) 122 % of control; (dose: 1.0 mg/kg/injection, schedule: Q01DX010 (ip), vehicle: saline) 115 % of control; under setting [12], 98 % of control; (dose: 125.0 micrograms/kg/injection, schedule: Q01DX010 (ip), vehicle: saline) 118 % of control; (dose: 1000.0 micrograms/kg/injection, schedule: Q01DX010 (ip), vehicle: saline) 116 % of control.
Regarding `O=C(Nc1ccc(NC2=NCCN2)cc1)c1ccc(C(=O)Nc2ccc(NC3=NCCN3)cc2)cc1`, the T/C is 112 % of control and 113 % of control under setting [12]; 115 % of control (dose: 4.0 mg/kg/injection, schedule: Q01DX010 (ip), vehicle: saline); 122 % of control and 115 % of control under setting [9].
Regarding `Nc1ncnc2[nH]ncc12`, the T/C was 103 % of control and 105 % of control (dose: 1.5 mg/kg/injection, schedule: Q01DX010 (ip), vehicle: saline); 103 % of control and 108 % of control (dose: 3.0 mg/kg/injection, schedule: Q01DX010 (ip), vehicle: saline); 107 % of control and 111 % of control (dose: 6.0 mg/kg/injection, schedule: Q01DX010 (ip), vehicle: saline); 102 % of control (dose: 12.0 mg/kg/injection, schedule: Q01DX010 (ip), vehicle: saline); 90 % of control (dose: 25.0 mg/kg/injection, schedule: Q01DX Z (ip), vehicle: carboxymethylcellulose (CMC)).
For `C#CCN(C)Cc1ccccc1`, the T/C reads like this: under setting [13], 91 % of control; under setting [14], 102 % of control; (dose: 200.0 mg/kg/injection, schedule: Q01DX010 (ip), vehicle: saline) 93 % of control.
Regarding `Cn1c(N)nc2nc[nH]c2c1=S`, the T/C is, setting by setting: under setting [1], 103 % of control; (dose: 16.0 mg/kg/injection, schedule: Q01DX Z (ip), vehicle: carboxymethylcellulose (CMC)) 111 % of control; under setting [3], 93 % of control; (dose: 31.0 mg/kg/injection, schedule: Q01DX Z (ip), vehicle: carboxymethylcellulose (CMC)) 120 % of control; (dose: 37.5 mg/kg/injection, schedule: Q01DX Z (ip), vehicle: carboxymethylcellulose (CMC)) 150 % of control; under setting [5], 99 % of control. The T/C runs as follows: (dose: 50.0 mg/kg/injection, schedule: Q01DX Z (ip), vehicle: carboxymethylcellulose (CMC)) 154 % of control; (dose: 75.0 mg/kg/injection, schedule: Q01DX Z (ip), vehicle: carboxymethylcellulose (CMC)) 119 % of control; under setting [7], 100 % of control; (dose: 150.0 mg/kg/injection, schedule: Q01DX Z (ip), vehicle: carboxymethylcellulose (CMC)) 150 % of control.
In the case of `CN=C(NC)c1ccc(NC(=O)Nc2ccc(NC(=O)Nc3ccc(C(=NC)NC)cc3)cc2)cc1`, the T/C runs as follows: (dose: 13.3 mg/kg/injection, schedule: Q01DX010 (ip), vehicle: saline) 101 % of control; under setting [3], 101 % of control.
`Nc1nc(N)c2nc(CNc3ccc(C(=O)NC(CCC(=O)O)C(=O)O)cc3)cnc2n1` (stereo not drawn): the T/C by setting is: (dose: 0.03 mg/kg/injection, schedule: Q01DX010 (ip), vehicle: other) 99 % of control and 109 % of control; (dose: 0.05 mg/kg/injection, schedule: Q01DX010 (ip), vehicle: other) 123 % of control and 101 % of control; (dose: 0.1 mg/kg/injection, schedule: Q01DX010 (ip), vehicle: other) 122 % of control and 124 % of control.
`O=C(O)CCCc1ccc(N(CCCl)CCCl)cc1`: the T/C (dose: 2.0 mg/kg/injection, schedule: Q01DX Z (ip), vehicle: carboxymethylcellulose (CMC)) was 101 % of control; the T/C (dose: 3.0 mg/kg/injection, schedule: Q01DX Z (ip), vehicle: carboxymethylcellulose (CMC)) was 106 % of control; the T/C (dose: 4.0 mg/kg/injection, schedule: Q01DX Z (ip), vehicle: carboxymethylcellulose (CMC)) is 112 % of control; the T/C (dose: 5.0 mg/kg/injection, schedule: Q01DX Z (ip), vehicle: carboxymethylcellulose (CMC)) is 119 % of control; the T/C (dose: 6.25 mg/kg/injection, schedule: Q01DX Z (ip), vehicle: carboxymethylcellulose (CMC)) is 115 % of control; the T/C (dose: 12.5 mg/kg/injection, schedule: Q01DX Z (ip), vehicle: carboxymethylcellulose (CMC)) is 118 % of control.
In the case of `COS(C)(=O)=O`, the T/C was 93 % of control under setting [10]; 101 % of control under setting [11]; 95 % of control under setting [4]; 102 % of control under setting [13]; 101 % of control under setting [6]; 106 % of control (dose: 75.0 mg/kg/injection, schedule: Q01DX Z (ip), vehicle: saline). Besides, the T/C is 100 % of control under setting [14] and 106 % of control under setting [8].

The values are drawn from PubChem BioAssay AID282 (DTP/NCI, 2004).
